Measured values published in the supplement of paper PMC10627819.
≈ marks a conversion by molar mass, not a printed value.

Columns and labels:
S. aureus DSM 20231 [1] = assay: fitness (endpoint OD595 vs no drug) (fraction); higher = more growth
In short: (§1)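 Growth medium was TSB, LB Lennox or CY, and plates were kept at 37 °C. Inoculation was at OD595 0.01 in 384-well plates, at 30 µl per well or 55 µl for S. pneumoniae. OD595 was monitored every 30 min for 14 h and background-subtracted using the first reading. Fitness is the optical density on entering stationary phase divided by the robust mean of no-drug controls, with values capped at 1.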

S. aureus Newman [2] = assay: as above
In short: as §1

B. subtilis 168 [3] = assay: as above
In short: as §1

S. pneumoniae D39V [4] = assay: as above
In short: as §1

S. aureus DSM 20231 [5] = tested on: S. aureus DSM 20231
S. aureus Newman [6] = tested on: S. aureus Newman
B. subtilis 168 [7] = tested on: B. subtilis 168
S. pneumoniae D39V [8] = tested on: S. pneumoniae D39V

CCN(CC)CCOC(=O)c1ccc(N)cc1 [Procaine]
fitness
Conditions	B. subtilis 168 [3]	S. aureus DSM 20231 [1]	S. aureus Newman [2]	S. pneumoniae D39V [4]
85.5 µg/mL	0.922	0.999	0.982	0.995
171 µg/mL	0.918	0.998	0.972	≥ 1
342 µg/mL	0.91	0.999	0.95	0.977

Conditions	MIC [µg/mL]
B. subtilis 168 [7]	> 342
S. aureus DSM 20231 [5]	> 342
S. aureus Newman [6]	> 342
S. pneumoniae D39V [8]	> 342

CCCCCCCCCC(=O)N[C@@H](Cc1c[nH]c2ccccc12)C(=O)N[C@H](CC(N)=O)C(=O)N[C@@H](CC(=O)O)C(=O)N[C@@H]1C(=O)NCC(=O)N[C@@H](CCCN)C(=O)N[C@@H](CC(=O)O)C(=O)N[C@H](C)C(=O)N[C@@H](CC(=O)O)C(=O)NCC(=O)N[C@H](CO)C(=O)N[C@@H]([C@H](C)CC(=O)O)C(=O)N[C@@H](CC(=O)c2ccccc2N)C(=O)O[C@@H]1C [Daptomycin]
fitness
Conditions	0.125 µg/mL	0.25 µg/mL	0.5 µg/mL	1 µg/mL	2 µg/mL	4 µg/mL
B. subtilis 168 [3]	0.941	0.944	0.934	–	–	–
S. aureus DSM 20231 [1]	0.998	0.989	≥ 1	≥ 1	≥ 1	–
S. aureus Newman [2]	0.954	0.964	0.964	0.98	≥ 1	–
S. pneumoniae D39V [4]	–	–	–	0.875	0.889	0.853

Conditions	MIC [µg/mL]
B. subtilis 168 [7]	0.5 (≈ 0.309 µM)
S. aureus DSM 20231 [5]	2 (≈ 1.23 µM)
S. aureus Newman [6]	1 (≈ 0.617 µM)
S. pneumoniae D39V [8]	8 (≈ 4.94 µM)

C[C@H]1COc2c(N3CCN(C)CC3)c(F)cc3c(=O)c(C(=O)O)cn1c23 [Levofloxacin]
fitness
Conditions	0.002 µg/mL	0.0039 µg/mL	0.0078 µg/mL	0.0312 µg/mL	0.0625 µg/mL	0.125 µg/mL	0.2 µg/mL	0.4 µg/mL	0.8 µg/mL
B. subtilis 168 [3]	0.932	0.928	0.916	0.0401	0.0424	0.0419	–	–	–
S. pneumoniae D39V [4]	–	–	–	–	–	–	0.931	0.789	0.468

Conditions	MIC [µg/mL]
S. aureus DSM 20231 [5]	0.15 (≈ 0.415 µM)
S. pneumoniae D39V [8]	2 (≈ 5.53 µM)

CO/N=C(\C(=O)N[C@@H]1C(=O)N2C(C(=O)[O-])=C(C[N+]3(C)CCCC3)CS[C@H]12)c1csc(N)n1 [Cefepime]
Conditions	fitness
B. subtilis 168 [3], 0.0625 µg/mL	0.872
B. subtilis 168 [3], 0.125 µg/mL	0.729
B. subtilis 168 [3], 0.25 µg/mL	0.432
S. aureus DSM 20231 [1], 0.125 µg/mL	≥ 1
S. aureus DSM 20231 [1], 0.25 µg/mL	0.996
S. aureus DSM 20231 [1], 0.5 µg/mL	0.935
S. aureus Newman [2], 0.125 µg/mL	0.924
S. aureus Newman [2], 0.25 µg/mL	0.872
S. aureus Newman [2], 0.5 µg/mL	0.784
S. pneumoniae D39V [4], 0.0078 µg/mL	≥ 1
S. pneumoniae D39V [4], 0.0155 µg/mL	0.993
S. pneumoniae D39V [4], 0.031 µg/mL	0.696

Conditions	MIC [µg/mL]
B. subtilis 168 [7]	0.25 (≈ 0.52 µM)
S. aureus DSM 20231 [5]	0.556 (≈ 1.16 µM)
S. aureus Newman [6]	0.556 (≈ 1.16 µM)
S. pneumoniae D39V [8]	0.031 (≈ 0.0645 µM)

Cn1nnc(-c2ccc(-c3ccc(N4C[C@H](CO)OC4=O)cc3F)cn2)n1 [Tedizolid]
fitness
Conditions	0.0312 µg/mL	0.0625 µg/mL	0.125 µg/mL	0.25 µg/mL	0.5 µg/mL
B. subtilis 168 [3]	0.943	0.901	0.643	–	–
S. aureus DSM 20231 [1]	–	0.923	0.809	0.229	–
S. aureus Newman [2]	–	0.936	0.859	0.434	–
S. pneumoniae D39V [4]	–	–	0.719	0.416	0.168

Conditions	MIC [µg/mL]
B. subtilis 168 [7]	0.5 (≈ 1.35 µM)
S. aureus DSM 20231 [5]	0.3 (≈ 0.81 µM)
S. aureus Newman [6]	0.3 (≈ 0.81 µM)
S. pneumoniae D39V [8]	0.125 (≈ 0.338 µM)

CN(C)C(=O)C(CCN1CCC(O)(c2ccc(Cl)cc2)CC1)(c1ccccc1)c1ccccc1 [Loperamide]
fitness
Conditions	20 µg/mL	25 µg/mL	40 µg/mL	50 µg/mL	80 µg/mL	100 µg/mL
B. subtilis 168 [3]	–	0.651	–	0.254	–	0.03
S. aureus DSM 20231 [1]	–	≥ 1	–	0.925	–	0.0918
S. pneumoniae D39V [4]	≥ 1	–	≥ 1	–	0.869	–

Conditions	MIC [µg/mL]
B. subtilis 168 [7]	100 (≈ 210 µM)
S. aureus DSM 20231 [5]	120 (≈ 252 µM)
S. aureus Newman [6]	120 (≈ 252 µM)
S. pneumoniae D39V [8]	200 (≈ 419 µM)
